Measured values: PubChem BioAssay AID180 (DTP/NCI, 2004)
“And” between values parts separate entries of the source, which are not always exact repeats. Equal entries are not always repeated.

Tested on: BDF1 mice, Adenocarcinoma 755 s.c., tumor weight T/C
Assay: NCI In Vivo Anticancer Drug Screen. Data for tumor model Adenocarcinoma 755 (subcutaneous) in B6D2F1 (BDF1) mice
Conditions: endpoint: mean tumor weight, higher = larger tumour
How it was run: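 Tumor-bearing mice receive test compound while controls get vehicle alone. Antitumor effect is scored from survival or tumor dimensions as a T/C quotient.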

[1] = dose: 1.0 mg/kg/injection, schedule: Q01DX011 (ip), vehicle: carboxymethylcellulose (CMC)
[2] = dose: 3.0 mg/kg/injection, schedule: Q01DX011 (ip), vehicle: carboxymethylcellulose (CMC)
[3] = dose: 50.0 mg/kg/injection, schedule: Q01DX011 (ip), vehicle: carboxymethylcellulose (CMC)
[4] = dose: 200.0 mg/kg/injection, schedule: Q01DX011 (ip), vehicle: saline

COCCCNS(=O)(=O)c1ncnc2nc[nH]c12
T/C [1]: 79 % of control | T/C (dose: 1.0 mg/kg/injection, schedule: Q01DX011 (ip), vehicle: saline): 74 % of control | T/C (dose: 2.5 mg/kg/injection, schedule: Q01DX011 (ip), vehicle: saline): 96 % of control | T/C [2]: 63 % of control and 81 % of control | T/C (dose: 3.0 mg/kg/injection, schedule: Q01DX011 (ip), vehicle: saline): 163 % of control | T/C (dose: 5.0 mg/kg/injection, schedule: Q01DX011 (ip), vehicle: carboxymethylcellulose (CMC)): 86 % of control | T/C (dose: 6.0 mg/kg/injection, schedule: Q01DX011 (ip), vehicle: other): 105 % of control | T/C (dose: 10.0 mg/kg/injection, schedule: Q01DX011 (ip), vehicle: carboxymethylcellulose (CMC)): 80 % of control | T/C (dose: 12.0 mg/kg/injection, schedule: Q01DX011 (ip), vehicle: other): 43 % of control | T/C (dose: 12.5 mg/kg/injection, schedule: Q01DX011 (ip), vehicle: carboxymethylcellulose (CMC)): 8 % of control (2×) and 30 % of control | T/C (dose: 12.5 mg/kg/injection, schedule: Q01DX011 (ip), vehicle: saline): 24 % of control | T/C (dose: 25.0 mg/kg/injection, schedule: Q01DX011 (ip), vehicle: other): 37 % of control | T/C (dose: 25.0 mg/kg/injection, schedule: Q01DX011 (ip), vehicle: saline): 5 % of control and 9 % of control | T/C [3]: 3 % of control and 4 % of control | T/C (dose: 50.0 mg/kg/injection, schedule: Q01DX011 (ip), vehicle: saline): 5 % of control | T/C (dose: 100.0 mg/kg/injection, schedule: Q01DX011 (ip), vehicle: carboxymethylcellulose (CMC)): 3 % of control | T/C (dose: 100.0 mg/kg/injection, schedule: Q01DX011 (ip), vehicle: other): 7 % of control | T/C [4]: 1 % of control

c1ccc2cc(-c3cc4ccccc4s3)ccc2c1
T/C (dose: 100.0 mg/kg/injection, schedule: Q01DX011 (ip), vehicle: saline): 70 % of control | T/C [4]: 59 % of control | T/C (dose: 400.0 mg/kg/injection, schedule: Q01DX011 (ip), vehicle: saline): 49 % of control | T/C (dose: 800.0 mg/kg/injection, schedule: Q01DX011 (ip), vehicle: saline): 42 % of control

CCCCn1cnc2c(SSc3ncnc4c3ncn4CCCC)ncnc21
T/C (dose: 0.5 mg/kg/injection, schedule: Q01DX011 (ip), vehicle: carboxymethylcellulose (CMC)): 94 % of control | T/C [1]: 104 % of control | T/C (dose: 2.0 mg/kg/injection, schedule: Q01DX011 (ip), vehicle: carboxymethylcellulose (CMC)): 101 % of control | T/C (dose: 4.0 mg/kg/injection, schedule: Q01DX011 (ip), vehicle: carboxymethylcellulose (CMC)): 77 % of control | T/C (dose: 7.5 mg/kg/injection, schedule: Q01DX011 (ip), vehicle: other): 32 % of control | T/C (dose: 8.0 mg/kg/injection, schedule: Q01DX011 (ip), vehicle: carboxymethylcellulose (CMC)): 19 % of control | T/C (dose: 15.0 mg/kg/injection, schedule: Q01DX011 (ip), vehicle: other): 23 % of control | T/C (dose: 16.0 mg/kg/injection, schedule: Q01DX011 (ip), vehicle: carboxymethylcellulose (CMC)): 13 % of control | T/C (dose: 30.0 mg/kg/injection, schedule: Q01DX011 (ip), vehicle: other): 1 % of control | T/C (dose: 31.0 mg/kg/injection, schedule: Q01DX011 (ip), vehicle: carboxymethylcellulose (CMC)): 6 % of control | T/C (dose: 62.0 mg/kg/injection, schedule: Q01DX011 (ip), vehicle: carboxymethylcellulose (CMC)): 5 % of control

Cn1c(=O)c2c(nc(N/N=C/c3ccccc3C(=O)O)n2C)n(C)c1=O
T/C (dose: 30.0 mg/kg/injection, schedule: Q01DX011 (ip), vehicle: carboxymethylcellulose (CMC)): 76 % of control | T/C (dose: 60.0 mg/kg/injection, schedule: Q01DX011 (ip), vehicle: carboxymethylcellulose (CMC)): 69 % of control | T/C (dose: 120.0 mg/kg/injection, schedule: Q01DX011 (ip), vehicle: carboxymethylcellulose (CMC)): 74 % of control | T/C (dose: 240.0 mg/kg/injection, schedule: Q01DX011 (ip), vehicle: carboxymethylcellulose (CMC)): 62 % of control

CCc1c(Cl)nc(N)nc1Nc1ccccc1Cl
T/C (dose: 15.0 mg/kg/injection, schedule: Q01DX011 (ip), vehicle: methylcellulose (MC)): 105 % of control | T/C (dose: 62.0 mg/kg/injection, schedule: Q01DX011 (ip), vehicle: methylcellulose (MC)): 103 % of control | T/C (dose: 125.0 mg/kg/injection, schedule: Q01DX011 (ip), vehicle: methylcellulose (MC)): 101 % of control

COC1=C(N)C(=O)c2nc(-c3nc(C(=O)O)c(C)c(-c4ccc(OC)c(OC)c4O)c3N)ccc2C1=O
T/C (dose: 0.02 mg/kg/injection, schedule: Q01DX011 (ip), vehicle: water): 72 % of control | T/C (dose: 0.04 mg/kg/injection, schedule: Q01DX011 (ip), vehicle: water): 47 % of control | T/C (dose: 0.08 mg/kg/injection, schedule: Q01DX011 (ip), vehicle: water): 55 % of control | T/C (dose: 0.16 mg/kg/injection, schedule: Q01DX011 (ip), vehicle: water): 4 % of control | T/C (dose: 0.25 mg/kg/injection, schedule: Q01DX006 (ip), vehicle: water): 41 % of control | T/C (dose: 0.5 mg/kg/injection, schedule: Q01DX006 (ip), vehicle: water): 10 % of control | T/C (dose: 50.0 micrograms/kg/injection, schedule: Q01DX011 (ip), vehicle: water): 36 % of control | T/C (dose: 75.0 micrograms/kg/injection, schedule: Q01DX011 (ip), vehicle: water): 30 % of control

Clc1nc(Cl)c2ncn(C3CCCO3)c2n1 (stereo not drawn)
T/C (dose: 33.0 mg/kg/injection, schedule: Q01DX011 (ip), vehicle: methylcellulose (MC)): 65 % of control

CC1CCC(n2cnc3c(N)ncnc32)O1 (stereo not drawn)
T/C (dose: 30.0 mg/kg/injection, schedule: Q01DX011 (ip), vehicle: saline): 108 % of control | T/C (dose: 60.0 mg/kg/injection, schedule: Q01DX011 (ip), vehicle: saline): 119 % of control | T/C (dose: 120.0 mg/kg/injection, schedule: Q01DX011 (ip), vehicle: saline): 66 % of control | T/C (dose: 240.0 mg/kg/injection, schedule: Q01DX011 (ip), vehicle: saline): 25 % of control

CCN(CC)C(=O)CSc1ncnc2nc[nH]c12
T/C (dose: 6.0 mg/kg/injection, schedule: Q01DX011 (ip), vehicle: methylcellulose (MC)): 91 % of control | T/C (dose: 25.0 mg/kg/injection, schedule: Q01DX011 (ip), vehicle: methylcellulose (MC)): 43 % of control | T/C (dose: 31.25 mg/kg/injection, schedule: Q01DX011 (ip), vehicle: methylcellulose (MC)): 6 % of control | T/C (dose: 62.5 mg/kg/injection, schedule: Q01DX011 (ip), vehicle: methylcellulose (MC)): 4 % of control

CCOP(=O)(O)OCC1OC(n2cnc3c(=S)nc[nH]c32)C(O)C1O (stereo not drawn)
T/C [2]: 12 % of control | T/C (dose: 6.0 mg/kg/injection, schedule: Q01DX011 (ip), vehicle: carboxymethylcellulose (CMC)): 2 % of control | T/C (dose: 12.0 mg/kg/injection, schedule: Q01DX011 (ip), vehicle: carboxymethylcellulose (CMC)): 4 % of control

CN(C)c1ccc(/C=C/C2=[N+](C)c3ccccc3C2(C)C)cc1
T/C (dose: 2.0 mg/kg/injection, schedule: Q01DX011 (ip), vehicle: other): 81 % of control

COS(C)(=O)=O
T/C (dose: 25.0 mg/kg/injection, schedule: Q01DX011 (ip), vehicle: carboxymethylcellulose (CMC)): 113 % of control | T/C [3]: 88 % of control

CC(=O)[C@H]1[C@H](C)C[C@H]2[C@@H]3CCC4=CC(=O)CC[C@]4(C)[C@@]3(F)[C@@H](O)C[C@@]21C
T/C (dose: 5.31 mg/kg/injection, schedule: Q01DX011 (sc), vehicle: steriod suspending solution): 108 % of control | T/C (dose: 6.0 mg/kg/injection, schedule: Q01DX011 (sc), vehicle: steriod suspending solution): 62 % of control | T/C (dose: 10.62 mg/kg/injection, schedule: Q01DX011 (sc), vehicle: steriod suspending solution): 85 % of control | T/C (dose: 12.0 mg/kg/injection, schedule: Q01DX011 (sc), vehicle: steriod suspending solution): 27 % of control | T/C (dose: 21.25 mg/kg/injection, schedule: Q01DX011 (sc), vehicle: steriod suspending solution): 86 % of control | T/C (dose: 25.0 mg/kg/injection, schedule: Q01DX011 (sc), vehicle: steriod suspending solution): 23 % of control | T/C (dose: 42.5 mg/kg/injection, schedule: Q01DX011 (sc), vehicle: steriod suspending solution): 39 % of control and 48 % of control | T/C (dose: 50.0 mg/kg/injection, schedule: Q01DX011 (sc), vehicle: steriod suspending solution): 16 % of control | T/C (dose: 85.0 mg/kg/injection, schedule: Q01DX011 (sc), vehicle: steriod suspending solution): 17 % of control | T/C (dose: 100.0 mg/kg/injection, schedule: Q01DX011 (sc), vehicle: steriod suspending solution): 12 % of control | T/C (dose: 170.0 mg/kg/injection, schedule: Q01DX011 (sc), vehicle: steriod suspending solution): 18 % of control | T/C (dose: 340.0 mg/kg/injection, schedule: Q01DX011 (sc), vehicle: steriod suspending solution): 18 % of control and 23 % of control | T/C (dose: 680.0 mg/kg/injection, schedule: Q01DX011 (sc), vehicle: steriod suspending solution): 8 % of control and 26 % of control | T/C (dose: 1360.0 mg/kg/injection, schedule: Q01DX011 (sc), vehicle: steriod suspending solution): 4 % of control

CC(C)Cn1cnc2c(=S)nc(N)[nH]c21
T/C (dose: 3.9 mg/kg/injection, schedule: Q01DX011 (ip), vehicle: methylcellulose (MC)): 5 % of control
